Data published in patent US11154591B2, “Methods of treating alcohol abuse disorder” (THE TRUSTEES OF COLUMBIA UNIVERSITY IN THE CITY OF NEW YORK, priority 2016, dated 2021).

Assays:
male C57BL/6J mice = assay: Free-choice 10% ethanol vs water intake, Example 2; format: in vivo
Experimental: To test this hypothesis, 5 groups of 5 male C57BL/6J mice (25 total) were housed for 40 days in plastic cages with 2 water bottles each: one containing water and the other 10% ethanol in water (10% ethanol). Fluids were available “free choice”, and intake from each bottle was recorded daily.
Over the 1st week, 10% ethanol and water were consumed at a mean ratio of 0.80±0.32:1.0. Intake of 10% ethanol then increased, plateauing at a 10% ethanol:water ratio of 2.0±0.17:1.0 by Days 22-30. This was assigned a value of 100% as baseline for the subsequent studies. Starting on Day 31, 15 mice were injected with Spexin in 1×PBS 25 μg/kg in PBS i.p. daily for 3 days. Mice were administered the 14 amino acid Spexin peptide with carboxy terminal amidation: Asn-Trp-Thr-Pro-Gln-Ala-Met-Leu-Tyr-Leu-Lys-Gly-Ala-Gln-NH2 (SEQ ID NO: 4; available from Phoenix Pharmaceuticals, Catalog No. 023-81). The other 10 mice were injected with 1×PBS (vehicle) alone.

C57BL/6J mice = assay: Free-choice 10% ethanol/water drinking, Example 1; format: in vivo
Description: Animals (C57BL/6J mice) were offered two options for drinking water, one bottle with pure water, and the other bottle containing a 10% ethanol/water mix, both of which were available “free choice” from Day 1 of the experiment. […] In this experiment, as the mice became accustomed to the 10% ethanol mix offered, they began to drink more and more of the ethanol mix, so that when their liquid consumption was plotted as a ratio of 10% ethanol/water, the ratio quickly became greater than 1 (more 10% ethanol than pure water). The mice were allowed to establish a baseline consumption pattern, and after 30 Days, 5 cages consistently consumed more of the ethanol mix than pure water.
Beginning on Day 33, three cages were treated with Spexin at 25 micrograms/kg/day in 1×PBS; via IP injection (cages 1, 4, and 10). Mice were administered the 14 amino acid Spexin peptide with carboxy terminal amidation: Asn-Trp-Thr-Pro-Gln-Ala-Met-Leu-Tyr-Leu-Lys-Gly-Ala-Gln-NH2 (SEQ ID NO: 4; available from Phoenix Pharmaceuticals, Catalog No. 023-81). The other two cages (2 and 7) were injected with an equal volume of vehicle according to the same schedule. Animals were injected for 5 days (Days 33 through 37), then given two days off (Days 38 and 39), then injected again with Spexin for two more days (days 40 and 41). […]

rat stomach explant = details: cited from earlier work
obese (DIO) mice = details: injected into obese (DIO) mice; cited from earlier work

Asn-Trp-Thr-Pro-Gln-Ala-Met-Leu-Tyr-Leu-Lys-Gly-Ala-Gln-NH2 [Spexin]
10% ethanol:water ratio, % of baseline (male C57BL/6J mice; 25 μg/kg i.p. daily, 1st day of Spexin administration, baseline ratio 2.0:1.0 = 100%): 80.7% | 10% ethanol:water ratio, % of baseline (male C57BL/6J mice; 25 μg/kg i.p. daily, 2nd day of Spexin administration): 42.4% | 10% ethanol:water ratio, % of baseline (male C57BL/6J mice; 25 μg/kg i.p. daily, 3rd day of Spexin administration): 42.4% | 10% ethanol:water ratio, % of baseline (male C57BL/6J mice; 1st day post-Spexin): 100% | 10% ethanol:water ratio, % of baseline (male C57BL/6J mice; 2nd day post-Spexin): 136% | ethanol intake (male C57BL/6J mice; daily spexin injections, free choice): rapidly & significantly reduce ethanol intake | ratio of 10% ethanol/water consumption (C57BL/6J mice; 25 micrograms/kg/day IP in 1xPBS, Days 33-37 and 40-41, cages 1, 4 and 10): dropped in all three cages | ratio of 10% ethanol/water consumption (C57BL/6J mice; 25 micrograms/kg/day IP, cages 4 and 10): below 1 | contractile effects (rat stomach explant): demonstrates contractile effects | weight loss (obese (DIO) mice): produces weight loss
